Here are results for 4 molecules from patent US20170008888A1 (KYORIN PHARMACEUTICAL CO., LTD., priority 2014, published 2017).

Each structure is given as a SMILES string.

What all share (type): binding
One test addresses T1, AurA (Homo sapiens, UniProt O14965).
T1 construct: screened for activity against several kinases in Jurkat cells; endogenous in cells; host or cells: Jurkat cell lysate
T1 sequence (O14965 1-403): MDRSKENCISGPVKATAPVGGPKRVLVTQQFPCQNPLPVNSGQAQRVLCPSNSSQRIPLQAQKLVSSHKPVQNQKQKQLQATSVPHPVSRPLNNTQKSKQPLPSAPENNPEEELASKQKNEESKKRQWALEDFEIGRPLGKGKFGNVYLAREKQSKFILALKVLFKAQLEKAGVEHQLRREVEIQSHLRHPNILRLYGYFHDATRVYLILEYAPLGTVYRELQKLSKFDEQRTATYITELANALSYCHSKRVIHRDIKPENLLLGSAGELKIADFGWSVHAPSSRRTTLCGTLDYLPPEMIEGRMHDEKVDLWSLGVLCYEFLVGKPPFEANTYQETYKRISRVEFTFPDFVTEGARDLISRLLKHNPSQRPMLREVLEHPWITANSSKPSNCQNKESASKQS
As to the kind of experiment: Probe-based (AX9989) kinase profiling in Jurkat lysate: AurA. The note with it: read-out: AurA Inhibition % at indicated screening concentration; for inhibition at 10 µM: screening concentration 10 μM; for inhibition at 1 µM: screening concentration 1 μM. The method in brief: (§1)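 Gel-filtered Jurkat lysate (HEPES pH 7.5, 20 mM MnCl2, 5 mg/ml) was pre-incubated 15 min with compound at room temperature, then labelled with 5 μM acyl-phosphate ATP probe AX9989. Tryptic probe-labelled active-site peptides were streptavidin-captured and quantified by LC/MS. Percent inhibition reflected the decrease in labelled-peptide intensity versus no compound.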

A further test concerns the target T2, JAK1 (Homo sapiens, UniProt P23458).
T2 construct: screened for activity against several kinases in Jurkat cells; endogenous in cells; host or cells: Jurkat cell lysate
In words: Probe-based (AX9989) kinase profiling in Jurkat lysate: JAK1. The note with it: read-out: JAK1 Inhibition % at indicated screening concentration; for inhibition at 10 µM: screening concentration 10 μM; for inhibition at 1 µM: screening concentration 1 μM. The method in brief:
as §1

For another test, the target named is T3, ERK5 (Homo sapiens, UniProt Q13164).
T3 construct: screened for activity against several kinases in Jurkat cells; endogenous in cells; host or cells: Jurkat cell lysate
In words: Probe-based (AX9989 acyl phosphate ATP probe) kinase profiling in Jurkat lysate: ERK5. To be noted: for IC50: calculated from percent inhibition and screening concentration, Jurkat lysate, AX9989 probe; for inhibition at 10 µM: screening concentration 10 μM; for inhibition at 10 µM / inhibition at 1 µM: read-out: ERK5 Inhibition % at indicated screening concentration; for inhibition at 1 µM: screening concentration 1 μM. The essentials:
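Gel-filtered Jurkat lysate (5 mg/ml, 20 mM MnCl2) preincubated 15 min at room temperature with compound, then labelled with 5 μM AX9989 acyl phosphate ATP probe. Probe-labelled ERK5 active-site peptides quantified by LC/MS after trypsin digestion and streptavidin capture; IC50 calculated from percent inhibition at the screening concentration.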

Another test concerns the target T4, TAO2 (Homo sapiens, UniProt Q9UL54).
T4 construct: screened for activity against several kinases in Jurkat cells; endogenous in cells; host or cells: Jurkat cell lysate
T4 sequence (Q9UL54 1-1235): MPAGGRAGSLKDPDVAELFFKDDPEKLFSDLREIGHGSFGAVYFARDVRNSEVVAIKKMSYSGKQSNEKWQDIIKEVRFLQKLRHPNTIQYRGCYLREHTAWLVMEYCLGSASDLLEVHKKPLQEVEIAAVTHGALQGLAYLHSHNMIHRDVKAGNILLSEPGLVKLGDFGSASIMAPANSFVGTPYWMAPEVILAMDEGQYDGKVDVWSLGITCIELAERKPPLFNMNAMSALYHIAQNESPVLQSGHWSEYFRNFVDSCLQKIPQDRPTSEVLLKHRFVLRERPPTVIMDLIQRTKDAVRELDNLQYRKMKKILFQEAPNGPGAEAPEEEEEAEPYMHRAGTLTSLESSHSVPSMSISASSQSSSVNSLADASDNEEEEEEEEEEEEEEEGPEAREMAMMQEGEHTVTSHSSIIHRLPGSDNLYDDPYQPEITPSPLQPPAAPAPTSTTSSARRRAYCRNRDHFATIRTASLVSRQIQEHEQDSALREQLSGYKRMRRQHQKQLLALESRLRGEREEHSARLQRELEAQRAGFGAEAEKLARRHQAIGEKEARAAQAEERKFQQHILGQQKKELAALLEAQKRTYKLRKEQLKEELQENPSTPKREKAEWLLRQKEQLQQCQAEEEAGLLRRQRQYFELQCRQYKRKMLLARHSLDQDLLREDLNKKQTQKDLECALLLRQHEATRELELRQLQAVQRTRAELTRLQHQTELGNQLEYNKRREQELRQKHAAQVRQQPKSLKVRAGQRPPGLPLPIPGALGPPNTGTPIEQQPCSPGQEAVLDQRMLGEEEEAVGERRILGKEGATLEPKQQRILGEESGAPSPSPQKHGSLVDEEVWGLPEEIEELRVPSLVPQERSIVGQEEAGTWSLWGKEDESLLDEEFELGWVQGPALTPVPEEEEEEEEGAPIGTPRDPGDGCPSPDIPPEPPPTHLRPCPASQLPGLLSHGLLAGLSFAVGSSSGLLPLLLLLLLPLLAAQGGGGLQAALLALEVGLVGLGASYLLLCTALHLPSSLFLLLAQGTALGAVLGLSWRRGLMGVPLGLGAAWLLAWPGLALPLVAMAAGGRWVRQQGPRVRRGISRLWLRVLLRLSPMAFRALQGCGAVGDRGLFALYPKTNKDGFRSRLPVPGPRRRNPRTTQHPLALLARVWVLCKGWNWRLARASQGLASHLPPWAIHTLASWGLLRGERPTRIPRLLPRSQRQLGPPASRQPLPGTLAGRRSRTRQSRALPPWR
In words: Probe-based (AX9989) kinase profiling in Jurkat lysate: TAO2. To be noted: read-out: TAO2 Inhibition % at indicated screening concentration; for inhibition at 10 µM: screening concentration 10 μM; for inhibition at 1 µM: screening concentration 1 μM. The essentials:
as §1

Another test deals with AMPKa1 or AMPKa2. As to the kind of experiment: Probe-based (AX9989) kinase profiling in Jurkat lysate: AMPKa1 or AMPKa2. The method in brief:
as §1

In a further test the test system is ABL or ARG. In words: Probe-based (AX9989) kinase profiling in Jurkat lysate: ABL or ARG. The method in brief:
as §1

A further test has as its target T5, ACK (Homo sapiens, UniProt Q07912).
T5 construct: screened for activity against several kinases in Jurkat cells; endogenous in cells; host or cells: Jurkat cell lysate
In words: Probe-based (AX9989) kinase profiling in Jurkat lysate: ACK. To be noted: read-out: ACK Inhibition % at indicated screening concentration; for inhibition at 10 µM: screening concentration 10 μM; for inhibition at 1 µM: screening concentration 1 μM. The method in brief:
as §1

The next test relates to AurB or AurC. In words: Probe-based (AX9989) kinase profiling in Jurkat lysate: AurB or AurC. The method in brief:
as §1

T5 sequence (Q07912 whole entry): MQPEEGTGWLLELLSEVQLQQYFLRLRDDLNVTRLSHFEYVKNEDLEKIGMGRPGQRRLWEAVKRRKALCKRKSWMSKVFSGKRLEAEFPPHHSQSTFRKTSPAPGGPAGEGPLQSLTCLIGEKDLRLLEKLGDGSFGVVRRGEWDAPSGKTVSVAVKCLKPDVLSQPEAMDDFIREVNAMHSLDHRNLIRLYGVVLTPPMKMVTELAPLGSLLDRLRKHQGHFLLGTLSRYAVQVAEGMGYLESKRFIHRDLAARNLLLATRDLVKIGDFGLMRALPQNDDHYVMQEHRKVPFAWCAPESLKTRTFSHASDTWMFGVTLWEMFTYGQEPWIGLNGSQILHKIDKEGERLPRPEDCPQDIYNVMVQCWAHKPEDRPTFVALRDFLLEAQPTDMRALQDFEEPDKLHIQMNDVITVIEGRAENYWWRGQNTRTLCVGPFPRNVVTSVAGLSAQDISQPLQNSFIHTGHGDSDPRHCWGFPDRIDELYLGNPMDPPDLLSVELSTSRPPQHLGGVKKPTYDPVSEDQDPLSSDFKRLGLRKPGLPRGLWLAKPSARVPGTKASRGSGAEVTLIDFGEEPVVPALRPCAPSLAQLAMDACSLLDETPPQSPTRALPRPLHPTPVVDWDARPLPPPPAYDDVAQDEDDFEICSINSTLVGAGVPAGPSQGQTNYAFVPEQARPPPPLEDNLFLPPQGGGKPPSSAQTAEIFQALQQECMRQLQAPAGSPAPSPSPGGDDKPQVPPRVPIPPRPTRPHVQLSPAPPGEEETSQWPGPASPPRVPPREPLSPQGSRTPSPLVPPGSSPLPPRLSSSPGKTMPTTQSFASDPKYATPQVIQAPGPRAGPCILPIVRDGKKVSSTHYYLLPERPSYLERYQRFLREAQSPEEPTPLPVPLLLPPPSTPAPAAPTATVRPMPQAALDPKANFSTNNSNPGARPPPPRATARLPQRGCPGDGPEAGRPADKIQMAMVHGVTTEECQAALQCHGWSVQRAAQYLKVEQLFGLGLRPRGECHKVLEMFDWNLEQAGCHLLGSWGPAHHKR
T3 sequence (Q13164 whole entry): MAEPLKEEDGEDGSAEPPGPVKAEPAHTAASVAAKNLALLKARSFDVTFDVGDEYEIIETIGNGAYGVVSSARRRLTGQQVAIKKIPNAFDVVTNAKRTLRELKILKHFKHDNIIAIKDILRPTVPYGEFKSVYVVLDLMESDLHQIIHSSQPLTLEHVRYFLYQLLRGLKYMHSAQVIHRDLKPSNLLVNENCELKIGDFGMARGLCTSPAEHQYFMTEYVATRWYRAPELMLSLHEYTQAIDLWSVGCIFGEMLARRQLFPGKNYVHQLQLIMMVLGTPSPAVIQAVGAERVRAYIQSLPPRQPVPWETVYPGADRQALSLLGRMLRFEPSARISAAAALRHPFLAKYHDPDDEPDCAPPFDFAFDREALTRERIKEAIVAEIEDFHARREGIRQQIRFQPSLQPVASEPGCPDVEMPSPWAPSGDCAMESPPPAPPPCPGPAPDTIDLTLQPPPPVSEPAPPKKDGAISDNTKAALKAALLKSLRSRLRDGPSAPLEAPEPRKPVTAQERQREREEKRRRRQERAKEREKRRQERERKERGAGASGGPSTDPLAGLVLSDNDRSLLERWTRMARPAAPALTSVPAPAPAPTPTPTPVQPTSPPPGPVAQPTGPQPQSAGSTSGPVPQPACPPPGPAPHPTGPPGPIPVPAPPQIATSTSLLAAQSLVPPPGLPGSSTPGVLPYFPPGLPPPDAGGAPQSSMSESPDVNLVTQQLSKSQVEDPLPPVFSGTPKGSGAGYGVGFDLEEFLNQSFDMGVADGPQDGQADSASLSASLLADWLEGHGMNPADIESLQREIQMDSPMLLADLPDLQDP
T2 sequence (P23458 whole entry): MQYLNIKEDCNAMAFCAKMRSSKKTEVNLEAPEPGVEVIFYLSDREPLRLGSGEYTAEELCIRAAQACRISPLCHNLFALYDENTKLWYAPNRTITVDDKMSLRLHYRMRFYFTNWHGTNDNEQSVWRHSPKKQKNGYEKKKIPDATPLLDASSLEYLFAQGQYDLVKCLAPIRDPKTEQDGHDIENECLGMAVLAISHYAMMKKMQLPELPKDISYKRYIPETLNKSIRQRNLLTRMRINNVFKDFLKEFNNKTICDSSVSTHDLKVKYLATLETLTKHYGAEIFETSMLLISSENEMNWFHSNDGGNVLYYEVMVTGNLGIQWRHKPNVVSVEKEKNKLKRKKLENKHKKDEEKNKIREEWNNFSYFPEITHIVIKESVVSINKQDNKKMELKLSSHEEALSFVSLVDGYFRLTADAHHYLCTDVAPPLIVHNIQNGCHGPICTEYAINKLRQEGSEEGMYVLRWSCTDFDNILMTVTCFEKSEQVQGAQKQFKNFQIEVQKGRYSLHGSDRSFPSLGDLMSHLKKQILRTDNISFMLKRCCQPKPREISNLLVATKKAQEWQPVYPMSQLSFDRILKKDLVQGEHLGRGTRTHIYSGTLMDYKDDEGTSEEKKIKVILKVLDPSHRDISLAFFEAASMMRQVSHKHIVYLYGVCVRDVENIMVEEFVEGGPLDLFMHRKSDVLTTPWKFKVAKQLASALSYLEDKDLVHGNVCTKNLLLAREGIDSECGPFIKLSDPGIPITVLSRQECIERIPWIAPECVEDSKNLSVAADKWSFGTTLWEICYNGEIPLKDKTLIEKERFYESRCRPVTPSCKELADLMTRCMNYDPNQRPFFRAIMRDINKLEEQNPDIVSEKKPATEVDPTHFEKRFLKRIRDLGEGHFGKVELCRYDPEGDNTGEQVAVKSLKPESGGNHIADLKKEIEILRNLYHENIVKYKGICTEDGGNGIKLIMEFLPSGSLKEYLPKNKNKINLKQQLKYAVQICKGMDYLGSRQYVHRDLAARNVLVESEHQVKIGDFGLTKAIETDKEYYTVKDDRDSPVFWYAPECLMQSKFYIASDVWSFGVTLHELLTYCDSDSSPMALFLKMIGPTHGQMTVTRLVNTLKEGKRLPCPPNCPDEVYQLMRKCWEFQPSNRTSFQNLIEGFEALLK

Consider `CCOc1cc(C(=O)N2CCOCC2)ccc1Nc1cc2c(cn1)N(C)C(=O)c1ccccc1[S+]2[O-]` (stereo not drawn) [Compound T83, 3-((2-ethoxy-4-(morpholine-4-carbonyl)phenyl)amino)-11-methylbenzo[f]pyrido[4,3-b][1,4]thiazepin-10(11H)-one 5-oxide], for which the inhibition at 10 µM was ≤ 35% on AurA; ≤ 35% on JAK1; 75 to 90% at ERK5; ≤ 35% on TAO2; ≤ 35% at ACK. For the same molecule, on ERK5, the IC50 (commonly the midpoint of a concentration-inhibition curve) is > 500 nM. The “AMPKa1 or AMPKa2 Inhibition % at indicated screening concentration” value (shortened to “AMPKa1 or AMPKa2 Inhibition %”) in the test on AMPKa1 or AMPKa2 (screening concentration 10 μM) is “E (E is ≦35%)”. The “ABL or ARG Inhibition % at indicated screening concentration” value (shortened to “ABL or ARG Inhibition %”) with ABL or ARG (screening concentration 10 μM) was “E (E is ≦35%)”. Besides, the “AurB or AurC Inhibition % at indicated screening concentration” value (“AurB or AurC Inhibition %” for short) with AurB or AurC (screening concentration 10 μM) was “E (E is ≦35%)”.

In the case of `CCOc1cc(C(=O)N2CCOCC2)ccc1Nc1cc2c(cn1)N(C)C(=O)c1ccccc1S2(=O)=O` [Compound T84], the inhibition at 10 µM was ≤ 35% on AurA; ≤ 35% at JAK1; 75 to 90% at ERK5; ≤ 35% on TAO2; ≤ 35% at ACK. Besides, the IC50 at ERK5 is > 500 nM. Also, in the test with AMPKa1 or AMPKa2 (screening concentration 10 μM), the “AMPKa1 or AMPKa2 Inhibition %” value is “E (E is ≦35%)”. In addition, the “ABL or ARG Inhibition %” value in the test with ABL or ARG (screening concentration 10 μM) is on record as “E (E is ≦35%)”. The “AurB or AurC Inhibition %” value in the test with AurB or AurC (screening concentration 10 μM) is listed as “E (E is ≦35%)”.

Regarding `CN1C(=O)c2ccccc2N(S(C)(=O)=O)c2cc(N[C@H]3CC[C@H](O)CC3)ncc21` [Compound T86, 3-(((1r,4r)-4-hydroxycyclohexyl)amino)-11-methyl-5-(methylsulfonyl)-5H-benzo[e]pyrido[3,4-b][1,4]diazepin-10(11H)-one], the inhibition at 1 µM on AurA was ≤ 35%; at JAK1, ≤ 35%; on ERK5, 35 to 50%; on TAO2 it was ≤ 35%; at ACK, ≤ 35%. For the same molecule, on ERK5, the IC50 is > 500 nM. The “AMPKa1 or AMPKa2 Inhibition %” value with AMPKa1 or AMPKa2 (screening concentration 1 μM) was “E (E is ≦35%)”. Also, the “ABL or ARG Inhibition %” value in the test with ABL or ARG (screening concentration 1 μM) is reported as “E (E is ≦35%)”. For the same molecule, in the test with AurB or AurC (screening concentration 1 μM), the “AurB or AurC Inhibition %” value is “E (E is ≦35%)”.

As for `CCOc1cc(C(=O)N2CCN(C3CCN(C)CC3)CC2)ccc1Nc1cc2c(cn1)N(C)C(=O)c1ccccc1N2S(C)(=O)=O` [Compound T87], the inhibition at 1 µM at AurA was ≤ 35%; at JAK1 it was ≤ 35%; at ERK5 it was 50 to 75%; on TAO2, ≤ 35%; on ACK, ≤ 35%. For the same molecule, the IC50 on ERK5 was > 500 nM. The “AMPKa1 or AMPKa2 Inhibition %” value with AMPKa1 or AMPKa2 (screening concentration 1 μM) is listed as “E (E is ≦35%)”. The “ABL or ARG Inhibition %” value in the test on ABL or ARG (screening concentration 1 μM) is “E (E is ≦35%)”. For the same molecule, the “AurB or AurC Inhibition %” value in the test on AurB or AurC (screening concentration 1 μM) is given as “E (E is ≦35%)”.
